Results from US8629132B2, “Kinase inhibitors” (Genosco, priority 2009, dated 2014).

Experiments:
[1] = biological target: T1, SYK (Homo sapiens, UniProt P43405); assay: Kinase inhibition assay: SYK; type: biochemical; settings: at 1 μM concentration
T1 construct: Purified full-length human SYK, ZAP70, PIM1, PYK2; purchased Carna Biosciences
Method: (§1) Compounds of the present invention were tested for their capacity to inhibit a kinase panel which includes, but are not limited to, spleen tyrosine kinase (SYK), zeta-chain-associated protein kinase 70 (ZAP70), PTK2B protein tyrosine kinase 2 (PYK2), focal adhesion kinase (FAK), provirus integration of maloney kinase 1 (PIM1), rearranged during transfection kinase (RET), Fms-like tyrosine kinase 3 (FLT3), Janus kinase 2 (JAK2), and leucine-rich repeat kinase 2 (LRRK2).
(§2) Inhibition of SYK, ZAP70, PYK2, FAK, PIM1, RET, FLT3, JAK2 and LRRK2 Kinase Activity
(§3) Compounds of the invention were initially diluted to 10 mM in 100% DMSO (CALBIOCHEM™) for storage and made into kinase buffer solution to create a compound concentration ranging from 1 uM and 10 uM. Serial dilutions of compounds of the invention were dispensed into a 96-well plate (GREINER BIOSCIENCES™) at 6 μL each. Purified full-length human SYK, ZAP70, PIM1, PYK2 and truncated human FAK, RET, FLT3, JAK2, and LRRK2 (CARNA BIOSCIENCES™) were diluted in kinase buffer and added to the compound solutions and pre-incubated for 30 minutes at room temperature (1 hour for PYK2). […] The reaction mixture was incubated for 1 hour (2 hours for PYK2). Following the incubation, the stop solution made with EDTA, water, and Lance detection buffer ([…]™) was added (12μL each) to stop phosphorylation. […] The IC50 value of test compound was calculated at Gradpad Prism 5 unless specified otherwise.

[2] = biological target: T2, FAK (Homo sapiens, UniProt Q05397); assay: Kinase inhibition assay: FAK; type: biochemical; settings: at 1 μM concentration
T2 construct: truncated human FAK, RET, FLT3, JAK2, and LRRK2; purchased Carna Biosciences
Method: as §1, §2, §3

[3] = biological target: T3, PYK2 (Homo sapiens, UniProt Q14289); assay: Kinase inhibition assay: PYK2; type: biochemical; settings: at 1 μM concentration
T3 construct: Purified full-length human SYK, ZAP70, PIM1, PYK2; purchased Carna Biosciences
Method: as §1, §2, §3

[4] = biological target: T4, PIM1 (Homo sapiens, UniProt P11309); assay: Kinase inhibition assay: PIM1; type: biochemical; settings: at 1 μM concentration
T4 construct: Purified full-length human SYK, ZAP70, PIM1, PYK2; purchased Carna Biosciences
Method: as §1, §2
Compounds of the invention were initially diluted to 10 mM in 100% DMSO (CALBIOCHEM™) for storage and made into kinase buffer solution to create a compound concentration ranging from 1 uM and 10 uM. Serial dilutions of compounds of the invention were dispensed into a 96-well plate (GREINER BIOSCIENCES™) at 6 μL each. Purified full-length human SYK, ZAP70, PIM1, PYK2 and truncated human FAK, RET, FLT3, JAK2, and LRRK2 (CARNA BIOSCIENCES™) were diluted in kinase buffer and added to the compound solutions and pre-incubated for 30 minutes at room temperature (1 hour for PYK2). […] The reaction mixture was incubated for 1 hour (2 hours for PYK2). Following the incubation, the stop solution made with EDTA, water, and Lance detection buffer ([…]™) was added (12μL each) to stop phosphorylation. […] Substrate phosphorylation was a function of the 665 nm emission measured following the addition of the detection solution and 50 minutes of incubation. The IC50 value of test compound was calculated at Gradpad Prism 5 unless specified otherwise.

[5] = biological target: T5, ZAP70 (Homo sapiens, UniProt P43403); assay: Kinase inhibition assay: ZAP70; type: biochemical; settings: at 1 μM concentration
T5 construct: Purified full-length human SYK, ZAP70, PIM1, PYK2; purchased Carna Biosciences
T5 sequence (P43403 1-619): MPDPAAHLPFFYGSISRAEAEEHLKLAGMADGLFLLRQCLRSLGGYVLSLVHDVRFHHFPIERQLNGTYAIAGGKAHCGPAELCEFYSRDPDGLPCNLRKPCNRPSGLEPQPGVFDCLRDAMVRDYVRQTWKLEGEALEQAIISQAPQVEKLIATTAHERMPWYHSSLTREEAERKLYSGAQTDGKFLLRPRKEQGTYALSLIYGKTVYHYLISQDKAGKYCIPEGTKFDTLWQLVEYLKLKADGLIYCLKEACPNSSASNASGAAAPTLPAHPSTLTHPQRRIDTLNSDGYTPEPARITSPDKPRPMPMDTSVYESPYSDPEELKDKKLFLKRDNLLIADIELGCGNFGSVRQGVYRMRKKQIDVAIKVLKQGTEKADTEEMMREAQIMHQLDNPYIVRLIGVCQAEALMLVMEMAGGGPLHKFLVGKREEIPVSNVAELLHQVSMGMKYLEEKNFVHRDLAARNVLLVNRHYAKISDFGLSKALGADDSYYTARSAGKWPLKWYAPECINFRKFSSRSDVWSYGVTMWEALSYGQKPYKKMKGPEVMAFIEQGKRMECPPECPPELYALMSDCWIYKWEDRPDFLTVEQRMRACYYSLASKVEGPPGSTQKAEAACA
Method: as §1, §2, §3

[6] = biological target: T6, FLT3 (Homo sapiens, UniProt P36888); assay: Kinase inhibition assay: FLT3; type: biochemical
T6 construct: truncated human FAK, RET, FLT3, JAK2, and LRRK2; purchased Carna Biosciences
T6 sequence (P36888 564-993 limits assumed): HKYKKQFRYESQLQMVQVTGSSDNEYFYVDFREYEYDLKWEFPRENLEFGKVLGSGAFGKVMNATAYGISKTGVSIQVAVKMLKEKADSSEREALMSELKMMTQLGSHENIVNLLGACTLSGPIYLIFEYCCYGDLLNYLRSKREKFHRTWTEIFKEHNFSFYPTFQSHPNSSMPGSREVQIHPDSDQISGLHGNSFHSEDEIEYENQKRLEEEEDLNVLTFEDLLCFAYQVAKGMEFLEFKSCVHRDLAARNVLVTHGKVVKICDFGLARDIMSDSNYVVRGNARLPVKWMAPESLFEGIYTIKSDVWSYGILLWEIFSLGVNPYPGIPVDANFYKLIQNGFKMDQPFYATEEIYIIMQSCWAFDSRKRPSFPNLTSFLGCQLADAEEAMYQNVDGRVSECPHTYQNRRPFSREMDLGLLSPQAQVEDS
Method: as §1, §2, §3

[7] = test system: MTC-TT; assay: Cell viability assay: RET inhibition; type: cell-based, human; settings: for IC50: Homo sapiens, 48 h, two days after drug treatment; for inhibition level compared with Vandetinib and Sunitinib: RET induced cancer cell line (MTC-TT)
Method: To address RET dependent cell viability, the medullary thyroid carcinoma cell line, MTC-TT representing MEN2A was utilized to test compounds of the present invention. MTC-TT were cultured at RPMI containing 15 bovine calf serum (Hyclon™ of Thermo™) and supplemented with 2 mM L-Glutamine The cells were grown at a density of 5×10^4 cells/100 μL/well in duplicate in 96-well plates for one day and treated with different concentrations of test compound. Cell viability for MTC-TT two days after drug treatment was measured by Cell Titer 96 Aqueous One Solution Reagent (Promega™) according to the manufacture instructions.

[8] = biological target: T7, RET (Homo sapiens, UniProt P07949); assay: Kinase inhibition assay: RET; type: biochemical
T7 construct: truncated human FAK, RET, FLT3, JAK2, and LRRK2; purchased Carna Biosciences
T7 sequence (P07949 658-1114 limits assumed): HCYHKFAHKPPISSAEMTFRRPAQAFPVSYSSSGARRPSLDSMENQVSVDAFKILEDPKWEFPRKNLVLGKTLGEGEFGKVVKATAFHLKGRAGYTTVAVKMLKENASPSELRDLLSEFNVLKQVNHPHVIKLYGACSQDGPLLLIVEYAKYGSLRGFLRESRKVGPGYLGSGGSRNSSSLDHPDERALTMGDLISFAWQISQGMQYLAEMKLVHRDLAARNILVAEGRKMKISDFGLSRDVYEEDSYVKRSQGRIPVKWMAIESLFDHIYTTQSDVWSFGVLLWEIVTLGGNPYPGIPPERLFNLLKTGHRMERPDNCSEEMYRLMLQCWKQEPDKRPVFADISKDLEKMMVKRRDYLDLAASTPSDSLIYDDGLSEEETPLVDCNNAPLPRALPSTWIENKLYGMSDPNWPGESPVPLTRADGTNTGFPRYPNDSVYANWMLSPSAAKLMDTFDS
Method: as §1, §2, §3

[9] = biological target: JAK2 (Homo sapiens, UniProt O60674); assay: Kinase inhibition assay: JAK2; type: biochemical; parameters: truncated human FAK, RET, FLT3, JAK2, and LRRK2; purchased Carna Biosciences
Method: as §1, §2, §3

[10] = biological target: T8, LRRK2 (Homo sapiens, UniProt Q5S007); assay: Kinase inhibition assay: LRRK2; type: biochemical
T8 construct: truncated human FAK, RET, FLT3, JAK2, and LRRK2; purchased Carna Biosciences
Method: as §1, §2, §3

T2 sequence (Q05397 376-1052 limits assumed): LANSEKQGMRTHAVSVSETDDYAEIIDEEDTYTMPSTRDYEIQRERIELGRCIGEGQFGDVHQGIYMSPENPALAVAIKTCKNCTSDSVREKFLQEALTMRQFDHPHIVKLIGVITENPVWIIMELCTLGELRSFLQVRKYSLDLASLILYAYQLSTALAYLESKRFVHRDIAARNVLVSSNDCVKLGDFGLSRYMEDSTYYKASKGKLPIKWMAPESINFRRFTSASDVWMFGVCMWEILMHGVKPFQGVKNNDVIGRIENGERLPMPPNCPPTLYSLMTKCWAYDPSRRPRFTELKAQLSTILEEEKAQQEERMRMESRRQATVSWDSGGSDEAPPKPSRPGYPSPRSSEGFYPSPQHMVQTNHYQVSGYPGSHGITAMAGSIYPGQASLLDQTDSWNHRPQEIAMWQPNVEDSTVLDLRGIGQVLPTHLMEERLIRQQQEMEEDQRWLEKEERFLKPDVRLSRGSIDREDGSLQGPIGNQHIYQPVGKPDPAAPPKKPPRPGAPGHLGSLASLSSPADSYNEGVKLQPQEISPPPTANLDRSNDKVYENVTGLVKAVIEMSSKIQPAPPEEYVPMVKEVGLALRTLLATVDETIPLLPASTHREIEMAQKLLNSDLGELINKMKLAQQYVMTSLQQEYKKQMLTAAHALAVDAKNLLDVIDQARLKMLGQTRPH
T4 sequence (P11309 whole entry): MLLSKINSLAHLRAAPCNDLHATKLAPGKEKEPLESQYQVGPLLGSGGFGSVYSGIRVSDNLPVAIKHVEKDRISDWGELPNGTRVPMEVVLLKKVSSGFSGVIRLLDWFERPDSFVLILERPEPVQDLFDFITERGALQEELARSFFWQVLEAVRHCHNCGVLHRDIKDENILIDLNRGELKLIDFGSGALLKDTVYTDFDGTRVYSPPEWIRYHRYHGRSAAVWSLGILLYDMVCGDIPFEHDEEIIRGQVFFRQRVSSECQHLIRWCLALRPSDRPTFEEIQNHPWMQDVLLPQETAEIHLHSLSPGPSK
JAK2, sequence (O60674 826-1132 limits assumed): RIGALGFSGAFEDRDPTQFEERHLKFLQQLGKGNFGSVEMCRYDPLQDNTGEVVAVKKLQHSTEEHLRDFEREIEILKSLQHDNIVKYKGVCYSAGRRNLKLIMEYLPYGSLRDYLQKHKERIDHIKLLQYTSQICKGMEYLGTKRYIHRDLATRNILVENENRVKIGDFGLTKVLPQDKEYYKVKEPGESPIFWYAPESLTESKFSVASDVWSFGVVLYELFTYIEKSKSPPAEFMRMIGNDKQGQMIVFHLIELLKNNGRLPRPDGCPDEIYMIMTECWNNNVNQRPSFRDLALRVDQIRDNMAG
T3 sequence (Q14289 whole entry): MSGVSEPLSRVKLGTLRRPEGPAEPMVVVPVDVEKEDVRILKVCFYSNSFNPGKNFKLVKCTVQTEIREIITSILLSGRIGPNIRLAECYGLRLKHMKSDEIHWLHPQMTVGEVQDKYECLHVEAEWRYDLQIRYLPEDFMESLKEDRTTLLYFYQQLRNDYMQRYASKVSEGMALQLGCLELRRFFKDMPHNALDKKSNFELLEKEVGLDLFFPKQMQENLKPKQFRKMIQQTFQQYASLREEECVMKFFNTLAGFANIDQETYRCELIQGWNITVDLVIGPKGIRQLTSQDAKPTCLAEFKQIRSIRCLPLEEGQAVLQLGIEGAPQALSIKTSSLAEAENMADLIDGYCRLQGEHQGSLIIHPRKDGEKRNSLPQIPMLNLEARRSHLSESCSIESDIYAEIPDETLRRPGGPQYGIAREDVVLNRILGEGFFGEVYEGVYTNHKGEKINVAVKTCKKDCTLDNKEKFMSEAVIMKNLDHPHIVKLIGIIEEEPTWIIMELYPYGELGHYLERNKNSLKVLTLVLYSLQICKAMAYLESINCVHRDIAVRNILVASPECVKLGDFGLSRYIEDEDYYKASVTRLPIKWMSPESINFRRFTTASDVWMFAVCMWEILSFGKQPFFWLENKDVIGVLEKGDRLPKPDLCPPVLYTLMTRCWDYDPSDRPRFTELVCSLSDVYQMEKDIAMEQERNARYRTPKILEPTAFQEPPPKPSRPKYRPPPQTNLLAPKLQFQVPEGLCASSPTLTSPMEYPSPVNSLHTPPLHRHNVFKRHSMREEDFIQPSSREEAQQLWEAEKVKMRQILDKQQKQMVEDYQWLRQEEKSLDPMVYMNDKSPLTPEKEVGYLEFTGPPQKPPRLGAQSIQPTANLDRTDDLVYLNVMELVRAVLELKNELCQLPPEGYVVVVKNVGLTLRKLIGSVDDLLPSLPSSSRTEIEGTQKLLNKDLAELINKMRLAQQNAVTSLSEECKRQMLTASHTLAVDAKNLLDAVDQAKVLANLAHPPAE
T8 sequence (Q5S007 970-2527 limits assumed): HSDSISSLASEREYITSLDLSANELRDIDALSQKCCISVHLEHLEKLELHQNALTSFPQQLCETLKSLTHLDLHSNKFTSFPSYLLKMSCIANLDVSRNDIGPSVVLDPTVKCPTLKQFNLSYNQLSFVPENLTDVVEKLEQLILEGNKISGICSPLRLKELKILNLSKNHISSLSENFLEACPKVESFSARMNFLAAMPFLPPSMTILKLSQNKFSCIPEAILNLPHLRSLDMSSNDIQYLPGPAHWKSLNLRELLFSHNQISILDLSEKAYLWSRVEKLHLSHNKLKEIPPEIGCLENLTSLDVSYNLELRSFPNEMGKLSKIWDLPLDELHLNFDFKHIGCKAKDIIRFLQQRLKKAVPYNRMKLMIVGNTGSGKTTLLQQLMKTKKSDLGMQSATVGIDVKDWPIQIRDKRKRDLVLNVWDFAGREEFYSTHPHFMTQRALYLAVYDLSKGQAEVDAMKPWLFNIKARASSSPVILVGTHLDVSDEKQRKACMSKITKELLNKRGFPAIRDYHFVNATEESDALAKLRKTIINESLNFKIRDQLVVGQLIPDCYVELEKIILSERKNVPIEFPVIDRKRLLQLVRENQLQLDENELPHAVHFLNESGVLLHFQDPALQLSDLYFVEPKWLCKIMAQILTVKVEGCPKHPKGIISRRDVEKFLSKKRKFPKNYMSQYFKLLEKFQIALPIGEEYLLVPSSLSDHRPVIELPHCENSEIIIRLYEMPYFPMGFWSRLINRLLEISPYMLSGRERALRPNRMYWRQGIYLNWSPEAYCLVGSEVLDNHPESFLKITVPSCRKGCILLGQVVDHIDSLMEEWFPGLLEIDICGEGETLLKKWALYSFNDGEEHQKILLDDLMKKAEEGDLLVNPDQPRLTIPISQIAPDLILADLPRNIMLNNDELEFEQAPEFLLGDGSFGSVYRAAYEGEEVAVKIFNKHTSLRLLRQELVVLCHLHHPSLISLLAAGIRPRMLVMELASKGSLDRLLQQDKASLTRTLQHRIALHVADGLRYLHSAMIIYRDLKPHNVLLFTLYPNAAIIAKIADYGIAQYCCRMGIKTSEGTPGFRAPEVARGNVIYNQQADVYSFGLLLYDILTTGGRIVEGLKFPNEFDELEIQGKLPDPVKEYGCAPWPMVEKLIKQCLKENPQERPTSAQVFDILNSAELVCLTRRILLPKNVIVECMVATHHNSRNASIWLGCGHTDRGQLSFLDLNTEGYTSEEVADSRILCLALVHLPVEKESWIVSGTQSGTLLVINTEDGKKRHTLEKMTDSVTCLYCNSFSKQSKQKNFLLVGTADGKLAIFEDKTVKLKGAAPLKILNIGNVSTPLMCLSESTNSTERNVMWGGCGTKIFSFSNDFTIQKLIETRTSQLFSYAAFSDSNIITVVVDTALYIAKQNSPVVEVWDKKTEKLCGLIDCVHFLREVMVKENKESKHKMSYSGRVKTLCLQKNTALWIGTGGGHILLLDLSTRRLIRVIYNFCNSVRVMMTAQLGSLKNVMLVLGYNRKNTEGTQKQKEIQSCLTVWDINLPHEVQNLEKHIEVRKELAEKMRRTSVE

Row | inhibition at 1 µM [1] | inhibition at 1 µM [2] | inhibition at 1 µM [3] | inhibition at 1 µM [4] | inhibition at 1 µM [5] | IC50 [6] | IC50 [8] | IC50 [9] | IC50 [10] | SMILES | IC50 [7] | inhibition level compared with Vandetinib and Sunitinib [7]
1 | 82.7% | 36.9% | 30.6% | 21.9% | 41.3% | – | – | – | – | Cc1cc(C)cc(Nc2ncc(F)c(-n3cc(C)c(CO)c3)n2)c1 [Compound 14, (1-(2-(3,5-dimethyl-phenylamino)-5-fluoro-pyrimidin-4-yl)-4-methyl-1H-pyrrol-3-yl)methanol] | – | –
2 | 41.8% | 17.7% | 18% | 3.7% | 19.3% | – | – | – | – | Cc1cc(C)cc(Nc2ncc(F)c(-n3cc(C(=O)N4CC[C@@H](O)C4)c(C)n3)n2)c1 [Compound 38, (R)-(1-(2-(3,5-dimethylphenylamino)-5-fluoropyrimidin-4-yl)-3-methyl-1H-pyrazol-4-yl)(3-hydroxypyrrolidin-1-yl)methanone] | – | –
3 | – | – | – | – | – | 0.17 nM | 10.2 nM | 3.7 nM | 275 nM | COc1cc(Nc2ncc(C)c(-n3cc(C)c(CN4CCN(CCO)CC4)c3)n2)cc(OC)c1OC [Compound 40, 2-(4-((4-methyl-1-(5-methyl-2-(3,4,5-trimethoxyphenylamino)pyrimidin-4-yl)-1H-pyrrol-3-yl)methyl)piperazin-1-yl)ethanol] | 78.4 nM | greater than those exhibited by Vandetinib and Sunitinib
4 | – | – | – | – | – | 1.7 nM | 2.3 nM | 2.5 nM | – | Cc1cn(-c2nc(Nc3cc(C)c(OCCO)c(C)c3)ncc2C)cc1CN(C)C [Compound 121, 2-(4-(4-(3-((dimethylamino)methyl)-4-methyl-1H-pyrrol-1-yl)-5-methylpyrimidin-2-ylamino)-2,6-dimethylphenoxy)ethanol] | 34.6 nM | greater than those exhibited by Vandetinib and Sunitinib
